Test results taken from US20260138958A1, “SUBSTITUTED N-PHENYLURACILS AND SALTS THEREOF, AND USE THEREOF AS HERBICIDAL ACTIVE SUBSTANCES” (Bayer Aktiengesellschaft, priority 2022, published 2026).

How the values were obtained:
Type in all cases: in vivo
[1] = test system: Triticum aestivum (TRZAS); assay: Post-emergence crop plant compatibility, greenhouse pot test; settings: Triticum aestivum, in vivo
Experimental: (§1) Seeds of monocotyledonous and dicotyledonous weeds and crop plants were placed in sandy loam in plastic or wood-fibre pots, covered with soil and cultivated in a greenhouse under controlled growth conditions. 2 to 3 weeks after sowing, the test plants were treated at the one-leaf stage. The compounds of the invention, formulated in the form of wettable powders (WP) or as emulsion concentrates (EC), were then sprayed onto the green parts of the plants as aqueous suspension or emulsion with addition of 0.5% additive at a water application rate of 600 l/ha (converted). After the test plants had been kept in the greenhouse under optimum growth conditions for about 3 weeks, the activity of the preparations was rated visually in comparison to untreated controls. For example, 100% activity=the plants have died, 0% activity=like control plants.
(§2) The observed effects on selected crop plants are reported here in comparison to the untreated controls (values in %).

[2] = test system: Veronica persica (VERPE); assay: Post-emergence herbicidal action, greenhouse pot test; settings: for pest or weed control at 5 g/ha / pest or weed control at 20 g/ha: Veronica persica, 504 h; for pest or weed control at 5 g/ha: read-out: Post-emergence effect at 5 g/ha against VERPE in %; for pest or weed control at 20 g/ha: read-out: Post-emergence effect at 20 g/ha against VERPE in %
Experimental: as §1

[3] = test system: Lolium rigidum (LOLRI); assay: as above
Experimental: as §1

[4] = test system: Amaranthus retroflexus (AMARE); assay: as above; settings: Amaranthus retroflexus, 504 h; for pest or weed control at 1.25 g/ha: read-out: Post-emergence effect at 1.25 g/ha against AMARE in %; for pest or weed control at 5 g/ha: read-out: Post-emergence effect at 5 g/ha against AMARE in %; for pest or weed control at 20 g/ha: read-out: Post-emergence effect at 20 g/ha against AMARE in %
Experimental: as §1

[5] = test system: Abutilon theophrasti (ABUTH); assay: as above; settings: for pest or weed control at 5 g/ha / pest or weed control at 20 g/ha: Abutilon theophrasti, 504 h; for pest or weed control at 5 g/ha: read-out: Post-emergence effect at 5 g/ha against ABUTH in %; for pest or weed control at 20 g/ha: read-out: Post-emergence effect at 20 g/ha against ABUTH in %
Experimental: as §1

[6] = test system: Viola tricolor (VIOTR); assay: as above; settings: for pest or weed control at 20 g/ha: Viola tricolor, 504 h, read-out: Post-emergence effect at 20 g/ha against VIOTR in %
Experimental: as §1

[7] = test system: Digitaria sanguinalis (DIGSA); assay: as above
Experimental: as §1

[8] = test system: Polygonum convolvulus (POLCO); assay: as above; settings: for pest or weed control at 5 g/ha / pest or weed control at 20 g/ha: Fallopia convolvulus, 504 h; for pest or weed control at 5 g/ha: read-out: Post-emergence effect at 5 g/ha against POLCO in %; for pest or weed control at 20 g/ha: read-out: Post-emergence effect at 20 g/ha against POLCO in %
Experimental: as §1

[9] = test system: Pharbitis purpurea (PHBPU); assay: as above; settings: Ipomoea purpurea, 504 h; for pest or weed control at 5 g/ha: read-out: Post-emergence effect at 5 g/ha against PHBPU in %; for pest or weed control at 20 g/ha: read-out: Post-emergence effect at 20 g/ha against PHBPU in %
Experimental: as §1

[10] = test system: Echinochloa crus-galli (ECHCG); assay: as above; settings: for pest or weed control at 20 g/ha: Echinochloa crus-galli, 504 h, read-out: Post-emergence effect at 20 g/ha against ECHCG in %
Experimental: as §1

[11] = test system: Alopecurus myosuroides (ALOMY); assay: as above; settings: for pest or weed control at 20 g/ha: Alopecurus myosuroides, 504 h, read-out: Post-emergence effect at 20 g/ha against ALOMY in %
Experimental: as §1

[12] = test system: Tripleurospermum inodorum (MATIN); assay: as above; settings: Tripleurospermum inodorum, 504 h, 20 g/ha, read-out: Post-emergence effect at 20 g/ha against MATIN in %
Experimental: as §1

[13] = test system: Bassia scoparia (KCHSC); assay: as above
Experimental: as §1

[14] = test system: Setaria viridis (SETVI); assay: as above; settings: for pest or weed control at 5 g/ha / pest or weed control at 20 g/ha: Setaria viridis, 504 h; for pest or weed control at 5 g/ha: read-out: Post-emergence effect at 5 g/ha against SETVI in %; for pest or weed control at 20 g/ha: read-out: Post-emergence effect at 20 g/ha against SETVI in %
Experimental: as §1

[15] = test system: Zea mays (ZEAMX); assay: Post-emergence crop plant compatibility, greenhouse pot test; settings: Zea mays, in vivo
Experimental: as §1, §2

Post-emergence effect at 1.25 g/ha against TRZAS in % [1]	Structure (SMILES)	Post-emergence effect at 1.25 g/ha against VERPE in % [2]	pest or weed control at 5 g/ha [2]	pest or weed control at 20 g/ha [2]	Post-emergence effect at 20 g/ha against LOLRI in % [3]	pest or weed control at 1.25 g/ha [4]	pest or weed control at 5 g/ha [4]	pest or weed control at 20 g/ha [4]	Post-emergence effect at 1.25 g/ha against ABUTH in % [5]	pest or weed control at 5 g/ha [5]	pest or weed control at 20 g/ha [5]	Post-emergence effect at 1.25 g/ha against VIOTR in % [6]	Post-emergence effect at 5 g/ha against VIOTR in % [6]	pest or weed control at 20 g/ha [6]	Post-emergence effect at 1.25 g/ha against DIGSA in % [7]	Post-emergence effect at 5 g/ha against DIGSA in % [7]	Post-emergence effect at 20 g/ha against DIGSA in % [7]	Post-emergence effect at 1.25 g/ha against POLCO in % [8]	pest or weed control at 5 g/ha [8]	pest or weed control at 20 g/ha [8]	also measured
20%	Cn1c(C(F)(F)F)cc(=O)n(-c2cc(Oc3ccccc3OCC(=O)OCC3CCC3)c(Cl)cc2F)c1=O [I.7-10, Cyclobutylmethyl (2-{2-chloro-4-fluoro-5-[3-methyl-2,6-dioxo-4-(trifluoromethyl)-3,6-dihydropyrimidin-1(2H)-yl]phenoxy}phenoxy)acetate]	100%	100%	100%	100%	100%	100%	100%	100%	100%	100%	100%	100%	100%	80%	100%	100%	100%	100%	100%	pest or weed control at 5 g/ha [9]: 100%; pest or weed control at 20 g/ha [9]: 100%; Post-emergence effect at 1.25 g/ha against ECHCG in % ([10]; 1.25 g/ha): 100%; Post-emergence effect at 5 g/ha against ECHCG in % [10]: 100%; pest or weed control at 20 g/ha [10]: 100%; pest or weed control at 20 g/ha [11]: 100%; pest or weed control at 20 g/ha [12]: 100%; Post-emergence effect at 1.25 g/ha against KCHSC in % [13]: 100%; Post-emergence effect at 5 g/ha against KCHSC in % [13]: 100%; Post-emergence effect at 20 g/ha against KCHSC in % [13]: 100%; Post-emergence effect at 1.25 g/ha against SETVI in % ([14]; 1.25 g/ha): 100%; pest or weed control at 5 g/ha [14]: 100%; pest or weed control at 20 g/ha [14]: 100%
10%	Cn1c(C(F)(F)F)cc(=O)n(-c2cc(Oc3ccccc3OCC(=O)OCC3CC34CC4)c(Cl)cc2F)c1=O (stereo not drawn) [I.7-18, Spiro[2.2]pentan-1-ylmethyl (2-{2-chloro-4-fluoro-5-[3-methyl-2,6-dioxo-4-(trifluoromethyl)-3,6-dihydropyrimidin-1(2H)-yl]phenoxy}phenoxy)acetate]	80%	100%	100%	100%	100%	100%	100%	100%	100%	100%	100%	100%	100%	100%	100%	100%	100%	100%	100%	Post-emergence effect at 1.25 g/ha against ZEAMX in % [15]: 20%; pest or weed control at 5 g/ha [9]: 100%; pest or weed control at 20 g/ha [9]: 100%; Post-emergence effect at 5 g/ha against ECHCG in % [10]: 100%; pest or weed control at 20 g/ha [10]: 100%; Post-emergence effect at 5 g/ha against ALOMY in % ([11]; 5 g/ha): 80%; pest or weed control at 20 g/ha [11]: 100%; pest or weed control at 20 g/ha [12]: 100%; Post-emergence effect at 1.25 g/ha against KCHSC in % [13]: 100%; Post-emergence effect at 5 g/ha against KCHSC in % [13]: 100%; Post-emergence effect at 20 g/ha against KCHSC in % [13]: 100%; pest or weed control at 5 g/ha [14]: 100%; pest or weed control at 20 g/ha [14]: 100%
